From patent US8765152B2, “Pharmaceutical or neutraceutical formulation” (Evonik Roehm GmbH, priority 2010, dated 2014)

B1: BBI: Bowman-Birk inhibitor from soy bean source (Sigma Aldrich); trypsin and chymotrypsin inhibitor (protein, UniProt P01055 40-110, looked up)
Bowman-Birk type proteinase …: DDESSKPCCDQCACTKSNPPQCRCSDMRLNSCHSACKSCICALSYPAQCFCVDITDFCYEPCKPSEDDKEN

Tests used:
[1] = test system: Caco-2-cell monolayer; assay: TEER, cationic penetration promotor/anionic active ingredient mixtures (Example 18); assay type: cell-based
Method: TEER-Testing was performed analogous to example 12.
The following mixtures in HBSS-buffers were tested
Desmopressin acetate=Desmo,
EUDRAGIT® E Carbonate=E (s. description: carbonated amino(meth)acrylate copolymer)
Bowman Birk Inhibitor=BBI
Heparin: Low molecular weight heparin (LMW-Heparine); Fraxiparin™ (Nadroparin calcium); 0.6 ml ready to use syringe for subcutaneous injection (5700 IU anti-Xa/mg); Ch.B.: 3394-1; Glaxo Smith Kline

[2] = test system: Caco-2-cell monolayer; assay: TEER, pure penetration promotor, Caco-2 cell monolayer (Example 17); assay type: cell-based; conditions: positive control 0.1%
Method: The penetration promoter in the sense of the present invention may be defined by reducing the initial TEER-value of the buffer solution without penetration promotor (100%) to 50% or less, preferably 40% or less, preferably 30% or less, preferably 20% or less in the presence of the penetration promotor at a concentration of 1 mg/ml after 60 min measured in a Caco-2-cell monolayer culture as transport barrier.
TEER-Testing was performed analogous to example 12. EUDRAGIT® E acetate=EUDRAGIT® E dissolved in water by addition of acetic acid until clear solution was obtained; EUDRAGIT® E PO base=dispersion of EUDRAGIT® E PO (powder form of EUDRAGIT® E) in water (not dissolved); chitosan acetate=chitosan dissolved in water by addition of acetic acid until clear solution was obtained.

[3] = test system: Pancreatin; assay: In-vitro pancreatic enzyme inhibition test, degradation of desmopressin acetate by pancreatin (Example 14); assay type: biochemical; conditions: for desmopressin acetate remaining in presence of pancreatin: control solutions (positive control 1 mg/ml BBI final)
Method: In-Vitro Pancreatic Enzyme Inhibition Test of the Preparations of Examples 1, 4 and 5
Inhibition experiments were performed using a new study design considering the dissolution of the pellets.
80 mg of each formulation were stirred in 10 ml of HBSS pH 5.8 at the lowest stirring speed available. The stirring was stopped after 30 min and the suspensions allowed to settle down before an aliquot (2 ml) was drawn and mixed with 2 mL of a solution containing 80 μg·ml^−1 of Desmopressin acetate in HBSS buffer pH 6.5. The pH of the solutions was measured but not adjusted.
As a negative control 2 ml of HBSS buffer were mixed with 2 ml of a solution containing 80 μg·ml^−1 of Desmopressin acetate in HBSS buffer pH 6.5. The pH of the solutions was measured but not adjusted.
As a positive control a solution containing 4 mg of BBI per ml in HBSS was used. 2 ml of the solution were mixed with 2 ml of a solution containing 80 μg·ml^−1 of Desmopressin acetate in HBSS buffer pH 6.5. The pH of the solutions was measured but not adjusted.
200 μL of the prepared solutions were mixed with 200 μl of a Pancreatin solution (20 mg·ml^−1) and incubated for 1, 2 and 3 h at 37° C. Each experiment was performed in triplicate (three individually prepared solutions).
(Final concentrations in the positive control: 1 mg/ml BBI, 20 μg/ml desmopressin actuate and 10 mg/ml pancreatin)
For the 100% value 80 mg pellets were stirred in 10 ml HBSS pH 5.8 for 30 min and homogenized using an ultraturrax. The suspension was stirred for further 15 minutes and allowed to settle down.
The supernatant was collected and further diluted with Desmopressin acetate in HBSS buffer pH 6.5 as described above. The pH of the solutions was measured but not adjusted.
For the starting values (t0) the mixture was directly added to 400 μl of acetonitrile and diluted with 1200 μL of HBSS buffer pH 6.5. The solution were analysed by HPLC using a RP-18-column as a stationary phase and a water/acetonitrile-mixture (80:20) as eluent phase at a wavelength of 220 nm.

[4] = orally ingested; cited from earlier work
[5] = listed as buffer (baseline), mean of n = 3

| Molecule | TEER in % of TEER in Medium during the test ([1]; 0 min) | TEER in % of TEER in Medium during the test ([1]; 15 min) | TEER in % of TEER in Medium during the test ([1]; 30 min) | TEER in % of TEER in Medium during the test ([1]; 60 min) | TEER in % of TEER in Medium during the test ([1]; 90 min) | TEER in % of TEER in Medium during the test ([1]; 120 min) | TEER in % of TEER in Medium during the test ([1]; 240 min) | TEER in % of TEER in Medium during the test [1, 5] | desmopressin acetate remaining in presence of pancreatin ([3]; 0 min) | desmopressin acetate remaining in presence of pancreatin ([3]; 60 min) | desmopressin acetate remaining in presence of pancreatin ([3]; 120 min) | desmopressin acetate remaining in presence of pancreatin ([3]; 180 min) | other results |
| --- | --- | --- | --- | --- | --- | --- | --- | --- | --- | --- | --- | --- | --- |
| CCCCCCCCCCCCOS(=O)(=O)[O-].[Na+] [Example 18h, Sodiumdodecylsufate] | 22% | 16% | 16% | 12% | 16% | 12% | 13% | 123% | – | – | – | – | Mean-TEER ([2]; 5 min): 12%; Mean-TEER ([2]; 60 min): 4%; Mean-TEER ([2]; 120 min): 10%; Mean-TEER ([2]; 180 min): 12%; Mean-TEER ([2]; 240 min): 15%; Mean-TEER ([2]; HBSS (0 min)): 100% |
| NC(=O)CC[C@@H]1NC(=O)[C@H](Cc2ccccc2)NC(=O)[C@H](Cc2ccc(O)cc2)NC(=O)CCSSC[C@@H](C(=O)N2CCC[C@H]2C(=O)N[C@H](CCCN=C(N)N)C(=O)NCC(N)=O)NC(=O)[C@H](CC(N)=O)NC1=O [Desmopressin acetate] | – | – | – | – | – | – | – | – | 100.00% | 61.79% | 50.51% | 33.54% | recovery of desmopressin ([3]; in the absence of the BBI, time not stated): more than 60% |
| Nadroparin calcium [Example 18d] | 110% | 102% | 106% | 105% | 112% | 111% | 104% | 118% | – | – | – | – | – |
| NC(=O)CC[C@@H]1NC(=O)[C@H](Cc2ccccc2)NC(=O)[C@H](Cc2ccc(O)cc2)NC(=O)CCSSC[C@@H](C(=O)N2CCC[C@H]2C(=O)N[C@H](CCCN=C(N)N)C(=O)NCC(N)=O)NC(=O)[C@H](CC(N)=O)NC1=O [Example 18c, Desmopressin acetate] | 119% | 111% | 115% | 111% | 118% | 119% | 109% | 123% | – | – | – | – | – |
| B1 | – | – | – | – | – | – | – | – | 100.00% | 98.82% | 94.48% | 85.25% | inhibition of degradation of desmopressin acetate by pancreatin (in words) ([3]; n=3): remarkably reduce the degradation; ingested bowman birk inhibitor absorbed in to the bloodstream [4]: Approximately 50% |
